Converted amounts (≈) assume the structure as drawn.
Experiments:
Format in all cases: cell-based
P. aeruginosa Paeβ-17 = experiment: broth microdilution MIC assay, P. aeruginosa Paeβ-17; settings: Pseudomonas aeruginosa, read-out: MIC, P. aeruginosa Paeβ-17
Experimental: (§1) To determine the ability of test compounds to inhibit the growth of bacterial strains, classic cell-based broth microdilution MIC assays were employed. MIC assays are performed according to CLSI methods except where otherwise noted (CLSI, 2011 and CLSI, 2009). The reference strains S. aureus ATCC 29213 (methicillin sensitive), S. aureus ATCC 33591 (methicillin-resistant), E. coli ATCC 25922 (wild-type/QC strain), P. aeruginosa ATCC 27853 (wild-type/QC strain), and the clinical isolate P. aeruginosa PA 8 were used to determine the ability of the exemplary carbapenem compounds to inhibit bacterial growth. An expanded panel of methicillin resistance S. aureus (MRSA) and Pseudomonas was also used to determine the ability of exemplary carbapenem compounds to inhibit bacterial growth across a broader representation of those species. To determine activity in MRSA and in addition to S. aureus ATCC 33591, S. aureus USA 300 and USA 600, some of the most common clones found to cause human infection, were also used. To further gauge the impact on the carbapenem compounds due to various resistance mechanisms in Pseudomonas, the following strains were included: P. aeruginosa 35151 (hyper-permeable strain), P. aeruginosa ΔmexAB-OprM (an efflux pump knockout), and P. aeruginosa Paβ-173 (a clinical isolate of reduced carbapenem susceptibility). Briefly, cryo-preserved bacterial cultures of clinical strains are streaked for isolation on appropriate agar medium, in this case Mueller Hinton II agar. Following incubation to allow formation of colonies, these plates are sealed with parafilm and stored refrigerated for up to two weeks. For preparation of assay inocula and to ensure low variability, at least 5 colonies are picked from the agar plates with an inoculating loop and aseptically transferred to a culture tube containing 3 mL of Mueller-Hinton Broth (supplemented with divalent cations to required levels based on Manufacturers' specification). The broth culture is grown for 3-5 hours at 37° C. with shaking at 200 rpm. Meanwhile, 2-fold serial dilutions of test compounds are conducted in a 96 well plate with a final volume of 75 μL per well at 2-fold the final desired concentration. After the dilution plates are set up the growing cultures are then diluted in a cuvette containing MH II broth and the optical density is measured at 600 nm. Inocula are diluted such that 75 μL of this culture in Mueller-Hinton Broth results in a starting bacterial concentration of 5×10^5 CFU/mL when added to the dilution plates. The plates are incubated 16-20 hours at 37° C. The MIC is read visually as the lowest concentration well with no bacterial growth.

[1] = tested on: E. coli ATCC 25922 (wild-type/QC strain); experiment: broth microdilution MIC assay, E. coli 25922; settings: Escherichia coli, ATCC25922; read-out: MIC, E. coli 25922
Experimental: as §1

[2] = tested on: P. aeruginosa ATCC 27853 (wild-type/QC strain); experiment: broth microdilution MIC assay, P. aeruginosa 27853; settings: Pseudomonas aeruginosa, ATCC27853; read-out: MIC, P. aeruginosa 27853
Experimental: as §1

S. aureus USA 600 = experiment: broth microdilution MIC assay, S. aureus USA600; settings: Staphylococcus aureus; S. aureus USA600 (MRSA); read-out: MIC, S. aureus USA600
Experimental: as §1

S. aureus USA 300 = experiment: broth microdilution MIC assay, S. aureus USA300; settings: Staphylococcus aureus; S. aureus USA300 (MRSA); read-out: MIC, S. aureus USA300
Experimental: as §1

[3] = tested on: P. aeruginosa ΔmexAB-OprM (an efflux pump knockout); experiment: broth microdilution MIC assay, P. aeruginosa ΔmexAB-OprM; settings: Pseudomonas aeruginosa, read-out: MIC, P. aeruginosa ΔmexAB-OprM
Experimental: as §1

[4] = tested on: P. aeruginosa 35151 (hyper-permeable strain); experiment: broth microdilution MIC assay, P. aeruginosa 35151; settings: Pseudomonas aeruginosa, read-out: MIC, P. aeruginosa 35151
Experimental: as §1

[5] = tested on: S. aureus ATCC 33591 (methicillin-resistant); experiment: broth microdilution MIC assay, S. aureus 33591; settings: Staphylococcus aureus, ATCC33591; S. aureus 33591, methicillin-resistant; read-out: MIC, S. aureus 33591
Experimental: as §1

Structure (SMILES)	MIC (P. aeruginosa Paeβ-17)	MIC [1]	MIC [2]	MIC (S. aureus USA 600)	MIC (S. aureus USA 300)	MIC [3]	MIC [4]	MIC [5]
C[C@@H](O)[C@H]1C(=O)N2C(C(=O)O)=C(SC3CN([C@@H]4CC[C@@H](N)C4)C3)[C@H](C)[C@H]12 [Example 8, (4R,5S,6S)-3-((1-((1R,3R)-3-aminocyclopentyl)azetidin-3-yl)thio)-6-((R)-1-hydroxyethyl)-4-methyl-7-oxo-1-azabicyclo[3.2.0]hept-2-ene-2-carboxylic acid]	8 to 32 µg/mL (≈ 21 to 83.9 µM)	< 1 µg/mL	1 to 4 µg/mL (≈ 2.62 to 10.5 µM)	1 to 4 µg/mL (≈ 2.62 to 10.5 µM)	1 to 4 µg/mL (≈ 2.62 to 10.5 µM)	1 to 4 µg/mL (≈ 2.62 to 10.5 µM)	< 1 µg/mL	1 to 4 µg/mL (≈ 2.62 to 10.5 µM)
C[C@@H](O)[C@H]1C(=O)N2C(C(=O)O)=C(SC3CN([C@H]4C[C@H](CN)C4)C3)[C@H](C)[C@H]12 [Example 2, (4R,5S,6S)-3-((1-((1r,3R)-3-(aminomethyl)cyclobutyl)azetidin-3-yl)thio)-6-((R)-1-hydroxyethyl)-4-methyl-7-oxo-1-azabicyclo[3.2.0]hept-2-ene-2-carboxylic acid]	> 32 µg/mL	< 1 µg/mL	8 to 32 µg/mL (≈ 21 to 83.9 µM)	1 to 4 µg/mL (≈ 2.62 to 10.5 µM)	1 to 4 µg/mL (≈ 2.62 to 10.5 µM)	1 to 4 µg/mL (≈ 2.62 to 10.5 µM)	< 1 µg/mL	8 to 32 µg/mL (≈ 21 to 83.9 µM)
C[C@@H](O)[C@H]1C(=O)N2C(C(=O)O)=C(SC3CN(C[C@H]4CCCN4)C3)[C@H](C)[C@H]12 [Example 32, (4R,5S,6S)-6-((R)-1-hydroxyethyl)-4-methyl-7-oxo-3-((1-(((R)-pyrrolidin-2-yl)methyl)azetidin-3-yl)thio)-1-azabicyclo[3.2.0]hept-2-ene-2-carboxylic acid]	8 to 32 µg/mL (≈ 21 to 83.9 µM)	< 1 µg/mL	8 to 32 µg/mL (≈ 21 to 83.9 µM)	1 to 4 µg/mL (≈ 2.62 to 10.5 µM)	1 to 4 µg/mL (≈ 2.62 to 10.5 µM)	1 to 4 µg/mL (≈ 2.62 to 10.5 µM)	< 1 µg/mL	8 to 32 µg/mL (≈ 21 to 83.9 µM)
C[C@@H](O)[C@H]1C(=O)N2C(C(=O)O)=C(SC3CN(C4CCNC4)C3)[C@H](C)[C@H]12 (stereo partly drawn) [Example 37, (4R,5S,6S)-6-((R)-1-hydroxyethyl)-4-methyl-7-oxo-3-((1-(pyrrolidin-3-yl)azetidin-3-yl)thio)-1-azabicyclo[3.2.0]hept-2-ene-2-carboxylic acid]	8 to 32 µg/mL (≈ 21.8 to 87.1 µM)	< 1 µg/mL	8 to 32 µg/mL (≈ 21.8 to 87.1 µM)	1 to 4 µg/mL (≈ 2.72 to 10.9 µM)	1 to 4 µg/mL (≈ 2.72 to 10.9 µM)	1 to 4 µg/mL (≈ 2.72 to 10.9 µM)	< 1 µg/mL	8 to 32 µg/mL (≈ 21.8 to 87.1 µM)
C[C@@H](O)[C@H]1C(=O)N2C(C(=O)O)=C(S[C@H]3C[C@H](N[C@H]4CC[C@H](N)C4)C3)[C@H](C)[C@H]12 [Example 67, (4R,5S,6S)-3-(((1S,3R)-3-(((1S,3S)-3-aminocyclopentyl)amino)cyclobutyl)thio)-6-((R)-1-hydroxyethyl)-4-methyl-7-oxo-1-azabicyclo[3.2.0]hept-2-ene-2-carboxylic acid]	8 to 32 µg/mL (≈ 20.2 to 80.9 µM)	< 1 µg/mL	8 to 32 µg/mL (≈ 20.2 to 80.9 µM)	1 to 4 µg/mL (≈ 2.53 to 10.1 µM)	8 to 32 µg/mL (≈ 20.2 to 80.9 µM)	1 to 4 µg/mL (≈ 2.53 to 10.1 µM)	< 1 µg/mL	8 to 32 µg/mL (≈ 20.2 to 80.9 µM)
C[C@@H](O)[C@H]1C(=O)N2C(C(=O)O)=C(S[C@H]3C[C@@H](N[C@H]4CC[C@H](N)CC4)C3)[C@H](C)[C@H]12 [Example 61, (4R,5S,6S)-3-(((1S,3S)-3-(((1R,4S)-4-aminocyclohexyl)amino)cyclobutyl)thio)-6-((R)-1-hydroxyethyl)-4-methyl-7-oxo-1-azabicyclo[3.2.0]hept-2-ene-2-carboxylic acid]	8 to 32 µg/mL (≈ 19.5 to 78.1 µM)	< 1 µg/mL	1 to 4 µg/mL (≈ 2.44 to 9.77 µM)	1 to 4 µg/mL (≈ 2.44 to 9.77 µM)	1 to 4 µg/mL (≈ 2.44 to 9.77 µM)	1 to 4 µg/mL (≈ 2.44 to 9.77 µM)	< 1 µg/mL	1 to 4 µg/mL (≈ 2.44 to 9.77 µM)
C[C@@H](O)[C@H]1C(=O)N2C(C(=O)O)=C(S[C@H]3C[C@@H](N[C@H]4CC[C@@H](NC(=N)N)CC4)C3)[C@H](C)[C@H]12 [Example 51, (4R,5S,6S)-3-(((1S,3S)-3-(((1S,4R)-4-guanidinocyclohexyl)amino)cyclobutyl)thio)-6-((R)-1-hydroxyethyl)-4-methyl-7-oxo-1-azabicyclo[3.2.0]hept-2-ene-2-carboxylic acid]	8 to 32 µg/mL (≈ 17.7 to 70.9 µM)	< 1 µg/mL	1 to 4 µg/mL (≈ 2.21 to 8.86 µM)	1 to 4 µg/mL (≈ 2.21 to 8.86 µM)	< 1 µg/mL	1 to 4 µg/mL (≈ 2.21 to 8.86 µM)	< 1 µg/mL	1 to 4 µg/mL (≈ 2.21 to 8.86 µM)
C[C@@H](O)[C@H]1C(=O)N2C(C(=O)O)=C(SC3CN(C[C@@H]4CCN(C(=N)N)C4)C3)[C@H](C)[C@H]12 [Example 39, (4R,5S,6S)-3-((1-(((S)-1-carbamimidoylpyrrolidin-3-yl)methyl)azetidin-3-yl)thio)-6-((R)-1-hydroxyethyl)-4-methyl-7-oxo-1-azabicyclo[3.2.0]hept-2-ene-2-carboxylic acid]	> 32 µg/mL	< 1 µg/mL	8 to 32 µg/mL (≈ 18.9 to 75.6 µM)	1 to 4 µg/mL (≈ 2.36 to 9.44 µM)	1 to 4 µg/mL (≈ 2.36 to 9.44 µM)	1 to 4 µg/mL (≈ 2.36 to 9.44 µM)	1 to 4 µg/mL (≈ 2.36 to 9.44 µM)	8 to 32 µg/mL (≈ 18.9 to 75.6 µM)
C[C@@H](O)[C@H]1C(=O)N2C(C(=O)O)=C(S[C@@H]3CCN(C[C@H]4CC[C@@H](N)CC4)C3)[C@H](C)[C@H]12 [Example 72, (4R,5S,6S)-3-(((R)-1-(((1S,4S)-4-aminocyclohexyl)methyl)pyrrolidin-3-yl)thio)-6-((R)-1-hydroxyethyl)-4-methyl-7-oxo-1-azabicyclo[3.2.0]hept-2-ene-2-carboxylic acid]	1 to 4 µg/mL (≈ 2.36 to 9.44 µM)	< 1 µg/mL	1 to 4 µg/mL (≈ 2.36 to 9.44 µM)	1 to 4 µg/mL (≈ 2.36 to 9.44 µM)	1 to 4 µg/mL (≈ 2.36 to 9.44 µM)	8 to 32 µg/mL (≈ 18.9 to 75.5 µM)	< 1 µg/mL	8 to 32 µg/mL (≈ 18.9 to 75.5 µM)
C[C@@H](O)[C@H]1C(=O)N2C(C(=O)O)=C(SC3CN(C[C@H]4CCN(C(=N)N)C4)C3)[C@H](C)[C@H]12 [Example 46, (4R,5S,6S)-3-((1-(((R)-1-carbamimidoylpyrrolidin-3-yl)methyl)azetidin-3-yl)thio)-6-((R)-1-hydroxyethyl)-4-methyl-7-oxo-1-azabicyclo[3.2.0]hept-2-ene-2-carboxylic acid]	8 to 32 µg/mL (≈ 18.9 to 75.6 µM)	< 1 µg/mL	1 to 4 µg/mL (≈ 2.36 to 9.44 µM)	1 to 4 µg/mL (≈ 2.36 to 9.44 µM)	1 to 4 µg/mL (≈ 2.36 to 9.44 µM)	1 to 4 µg/mL (≈ 2.36 to 9.44 µM)	< 1 µg/mL	1 to 4 µg/mL (≈ 2.36 to 9.44 µM)
C[C@@H](O)[C@H]1C(=O)N2C(C(=O)O)=C(S[C@H]3C[C@H](N[C@@H]4CC[C@H](NC(=N)N)C4)C3)[C@H](C)[C@H]12 [Example 79, (4R,5S,6S)-3-(((1R,3R)-3-(((1R,3S)-3-guanidinocyclopentyl)amino)cyclobutyl)thio)-6-((R)-1-hydroxyethyl)-4-methyl-7-oxo-1-azabicyclo[3.2.0]hept-2-ene-2-carboxylic acid]	1 to 4 µg/mL (≈ 2.29 to 9.14 µM)	< 1 µg/mL	1 to 4 µg/mL (≈ 2.29 to 9.14 µM)	1 to 4 µg/mL (≈ 2.29 to 9.14 µM)	1 to 4 µg/mL (≈ 2.29 to 9.14 µM)	8 to 32 µg/mL (≈ 18.3 to 73.1 µM)	< 1 µg/mL	8 to 32 µg/mL (≈ 18.3 to 73.1 µM)
C[C@@H](O)[C@H]1C(=O)N2C(C(=O)O)=C(S[C@H]3C[C@@H](N[C@@H]4CC[C@H](N)C4)C3)[C@H](C)[C@H]12 [Example 77, (4R,5S,6S)-3-(((1S,3S)-3-(((1R,3S)-3-aminocyclopentyl)amino)cyclobutyl)thio)-6-((R)-1-hydroxyethyl)-4-methyl-7-oxo-1-azabicyclo[3.2.0]hept-2-ene-2-carboxylic acid]	1 to 4 µg/mL (≈ 2.53 to 10.1 µM)	< 1 µg/mL	1 to 4 µg/mL (≈ 2.53 to 10.1 µM)	1 to 4 µg/mL (≈ 2.53 to 10.1 µM)	1 to 4 µg/mL (≈ 2.53 to 10.1 µM)	8 to 32 µg/mL (≈ 20.2 to 80.9 µM)	< 1 µg/mL	8 to 32 µg/mL (≈ 20.2 to 80.9 µM)

— US20230127944A1, “BROAD-SPECTRUM CARBAPENEMS” (priority 2019, published 2023)
